In publication PMC11960431, “A novel function of short cationic peptide FP-CATH9 without antimicrobial activity reverses resistance to minocycline in common multidrug-resistant gram-negative bacteria” (Microbiology Spectrum, 2025):
Ends that are not written are not given here.

How the values were obtained:
[1] = system: Clinical K. pneumoniae 3 (minocycline resistance); assay: Disk diffusion plate assay, inhibition zone (peptide alone and antibiotic sensitization); details: for Inhibition zone (mm) Contains FP-CATH9 / Inhibition zone (mm) Normal saline control: K. pneumoniae strain 3, mean ± SD, repeated three times; for Inhibition zone (mm) Contains FP-CATH9: antibiotic disk + FP-CATH9 (20 µg peptide in 10 µL); for Inhibition zone (mm) Normal saline control: antibiotic disk + normal saline, without FP-CATH9
[2] = system: Clinical A. baumannii 3 (minocycline resistance); assay: Disk diffusion plate assay, inhibition zone; format: cell-based, Acinetobacter baumannii; details: Multidrug-resistant A. baumannii strain 3; MH paper + 10 µL normal saline; Fig 3B
Description: (§1) The antimicrobial activity of FP-CATH9 was determined through broth microdilution and plate assays in an antibiotic disk diffusion test.
(§2) The MIC of FP-CATH9 was determined using broth microdilution as recommended by Clinical and Laboratory Standards Institute (CLSI). Sensitivity to other antibiotics was assessed using the VITEK 2 Compact System (bioMerieux, France). Antimicrobial activity was determined using the Clinical and Laboratory Standards Institute (CLSI) Standard Reference method([17]).
(§3) The concentration of the FP-CATH9 mother solution was 2 mg/mL. The control conditions included MH paper + normal saline (10 µL) , experimental conditions included MH paper + FP-CATH9 (10 µL). Total 10 µL was added to MH paper to detect the dose dependence of sensitization.

[3] = system: P. aeruginosa ATCC 27853; assay: Disk diffusion plate assay, inhibition zone; format: cell-based, Pseudomonas aeruginosa; details: MH paper + 10 µL normal saline, Fig 3A
Description: as §1, §2, §3

[4] = system: minocycline-resistant K. pneumoniae strain 3; assay: G. mellonella infection assay; format: in vivo, Galleria mellonella; details: G. mellonella larvae, n = 10, infected with K. pneumoniae strain 3; 16 µg/mL; 7 days
Description: The G. mellonella model of bacterial infection was used to evaluate the combined protective effect of FP-CATH9 and minocycline. In each G. mellonella group (n = 10), G. mellonella survival was recorded every 24 h after infection. […] After the infected group was injectioned with minocycline -resistant K. pneumoniae strain 3 , the larvae all died within 1 day.
Refer to the method of a reference ([22]). Monoclonal K. pneumoniae strain 3 was selected and cultivated in 5 mL LB broth using a constant temperature oscillator at 200 rpm/min and 37°C for 12 h. After 12 h, the culture was expanded and diluted at the ratio of 1:100. The logarithmic bacterial solution was taken, washed with normal saline, and then suspended in 1 mL system with a concentration of 1.5 × 10^8 CFU/mL. The experiment was divided into 5 groups: the minocycline-resistant K. pneumoniae strain 3 group (treated group), the group injected with FP-CATH9 (16 µg/mL) alone, the group with minocycline (16 µg/mL) alone, the group with FP-CATH9 (16 µg/mL) + minocycline (16 µg/mL), and the NS group (saline group). […]

[5] = system: Multidrug-resistant K. pneumoniae strain 3; assay: Time-killing curve; format: cell-based, Klebsiella pneumoniae; details: K. pneumoniae strain 3, 10^6 CFU/mL, 37°C, each agent 16 µg/mL
Description: After 4 h of treatment with minocycline only (16 µg/mL), drug-resistant bacterial cultures were again observed to be growing rapidly.
Refer to the method of a reference ([19]). The above clinical K. pneumoniae strain 3 was taken in logarithmic stage (oscillatory culture at 37°C) and diluted with fresh MH liquid medium into 10^6 CFU/mL bacterial suspension. […] The bacterial solution added with the drug was placed in an incubator at 37°C for shock culture, and the 50 µL bacterial solution was diluted 1,000 times at 0, 2, 4, 6, 8, 10, and 12 h, respectively. Then, the 50 µL diluted bacteria solution was coated on MH solid medium, and the bacterial colonies were counted after overnight culture at 37°C. Saline was used as a negative control.

[6] = system: Multidrug-resistant K. pneumoniae; assay: Checkerboard assay, FP-CATH9 and minocycline; details: 18 h
[7] = system: Clinical K. pneumoniae 1 (minocycline sensitive); assay: MIC, broth microdilution (CLSI); format: cell-based, Klebsiella pneumoniae; details: peptide alone, repeated three times
[8] = system: Clinical A. baumannii 2 (minocycline mediated); format: cell-based, Acinetobacter baumannii; details: peptide alone, repeated three times
[9] = system: Clinical A. baumannii 1 (minocycline sensitive); assay: MIC, broth microdilution (CLSI); format: cell-based, Acinetobacter baumannii; details: peptide alone, repeated three times
[10] = system: P. aeruginosa ATCC 27853; assay: MIC, broth microdilution (CLSI); format: cell-based, Pseudomonas aeruginosa; details: peptide alone, repeated three times
[11] = system: bovine erythrocytes; assay: Hemolytic activity; format: cell-based; details: 5% bovine erythrocyte suspension, 128 µg/mL, 37°C, 1 h, absorbance 540 nm; 0.2% Triton X-100 positive control; mean ± SD
Description: Refer to the method of a reference ([21]). Determination of hemolytic activity. Fresh bovine blood cells (Guangzhou Hongquan Biotechnology Co., Ltd., No: HQ80074) were washed with normal saline three times and configured into 5% erythrocyte suspension. […] The supernatant was absorbed, and the absorption value was measured at a 540 nm wavelength. Normal saline was used as negative control, and 0.2% Triton X-100 was used as positive control. The percentage of hemolysis rate is calculated by the following formula: hemolysis rate % = A(sample) − A(negative control) / A(positive control) × 100%.

[12] = system: Clinical K. pneumoniae 2 (minocycline mediated); format: cell-based, Klebsiella pneumoniae; details: peptide alone, repeated three times
[13] = system: A. baumannii ATCC 19606; assay: MIC, broth microdilution (CLSI); format: cell-based, Acinetobacter baumannii; details: peptide alone, repeated three times
[14] = system: K. pneumoniae ATCC 700603; format: cell-based, Klebsiella pneumoniae; details: peptide alone, repeated three times
[15] = system: S. aureus ATCC 29213; assay: MIC, broth microdilution (CLSI); format: cell-based; details: peptide alone, repeated three times
[16] = system: E. coli ATCC BW25113; assay: MIC, broth microdilution (CLSI); format: cell-based, Escherichia coli; details: peptide alone, repeated three times
[17] = system: Clinical P. aeruginosa 3 (minocycline resistance); details: peptide alone, repeated three times
Description: as §1, §2

[18] = system: Clinical P. aeruginosa 2 (minocycline resistance); details: peptide alone, repeated three times
Description: as §1, §2

[19] = system: Clinical K. pneumoniae 3 (minocycline resistance); details: peptide alone, repeated three times
Description: as §1, §2

[20] = system: Clinical A. baumannii 3 (minocycline resistance); details: peptide alone, repeated three times
Description: as §1, §2

[21] = system: Clinical P. aeruginosa 1 (minocycline resistance); details: peptide alone, repeated three times
Description: as §1, §2

NCC[C@H](O)C(=O)N[C@@H]1C[C@H](N)[C@@H](O[C@H]2O[C@H](CN)[C@@H](O)[C@H](O)[C@H]2O)[C@H](O)[C@H]1O[C@H]1O[C@H](CO)[C@@H](O)[C@H](N)[C@H]1O [AK, amikacin]
Inhibition zone (mm) Contains FP-CATH9 [1]: 6 mm
Inhibition zone (mm) Normal saline control [1]: 6 mm

CC1(C)S[C@@H]2[C@H](NC(=O)[C@H](N)c3ccccc3)C(=O)N2[C@H]1C(=O)O [AMP, ampicillin]
Inhibition zone (mm) Contains FP-CATH9 [1]: 6 mm
Inhibition zone (mm) Normal saline control [1]: 6 mm

CC(C)(O/N=C(\C(=O)N[C@@H]1C(=O)N2C(C(=O)[O-])=C(C[n+]3ccccc3)CS[C@H]12)c1csc(N)n1)C(=O)O [CAZ, ceftazidime]
Inhibition zone (mm) Contains FP-CATH9 [1]: 6 mm
Inhibition zone (mm) Normal saline control [1]: 6 mm

CO/N=C(\C(=O)N[C@@H]1C(=O)N2C(C(=O)O)=C(CSc3nc(=O)c(=O)[nH]n3C)CS[C@H]12)c1csc(N)n1 [CRO, ceftriaxone]
Inhibition zone (mm) Contains FP-CATH9 [1]: 6 mm
Inhibition zone (mm) Normal saline control [1]: 6 mm

CNC(C)C1CCC(N)C(OC2C(N)CC(N)C(OC3OCC(C)(O)C(NC)C3O)C2O)O1 (centres unmarked) [GN, gentamicin]
Inhibition zone (mm) Contains FP-CATH9 [1]: 6 mm
Inhibition zone (mm) Normal saline control [1]: 6 mm

C[C@@H](O)[C@H]1C(=O)N2C(C(=O)O)=C(SCCN=CN)C[C@H]12 [IPM, imipenem]
Inhibition zone (mm) Contains FP-CATH9 [1]: 9.03 ± 0.05 mm
Inhibition zone (mm) Normal saline control [1]: 9.06 ± 0.04 mm

C[C@@H](O)[C@H]1C(=O)N2C(C(=O)O)=C(S[C@@H]3CN[C@H](C(=O)N(C)C)C3)[C@H](C)[C@H]12 [MEM, meropenem]
Inhibition zone (mm) Contains FP-CATH9 [1]: 8.1 ± 0.08 mm
Inhibition zone (mm) Normal saline control [1]: 8.16 ± 0.12 mm

Cc1cc(NS(=O)(=O)c2ccc(N)cc2)no1 [SXT, sulfamethoxazole]
Inhibition zone (mm) Contains FP-CATH9 [1]: 10.13 ± 0.12 mm
Inhibition zone (mm) Normal saline control [1]: 10.23 ± 0.17 mm

CN(C)c1ccc(O)c2c1C[C@H]1C[C@H]3[C@H](N(C)C)C(O)=C(C(N)=O)C(=O)[C@@]3(O)C(O)=C1C2=O [minocycline]
Inhibition zone, control [2]: 11 mm
Inhibition zone, control [3]: 6 mm
protective effect [4]: little protective effect
Inhibition zone, control ([1]; Multidrug-resistant K. pneumoniae strain 3, MH paper + 10 µL normal saline, Fig 3C): 6 mm
effect on bacterial growth at 10 h (time-killing curve) [5]: no inhibitory effect
MIC ([6]; Klebsiella pneumoniae, read-out: MIC of minocycline alone): 128 µg/mL
MIC of minocycline combined with FP-CATH9 ([6]; multidrug-resistant K. pneumoniae, 5 × 10^5 CFU/mL, 37°C): 2 µg/mL

KRFKKFWKK [FP-CATH9]
FP-CATH9 MIC [7]: >512 µg/mL
FP-CATH9 MIC [8]: >512 µg/mL
FP-CATH9 MIC [9]: >512 µg/mL
FP-CATH9 MIC [10]: >512 µg/mL
hemolysis [11]: 3.97% ± 0.42%
FP-CATH9 MIC [12]: >512 µg/mL
FP-CATH9 MIC [13]: >512 µg/mL
FP-CATH9 MIC [14]: >512 µg/mL
FP-CATH9 MIC [15]: >512 µg/mL
FP-CATH9 MIC [16]: >512 µg/mL
FP-CATH9 MIC [17]: >512 µg/mL
FP-CATH9 MIC [18]: >512 µg/mL
FP-CATH9 MIC [19]: >512 µg/mL
FP-CATH9 MIC [20]: >512 µg/mL
FP-CATH9 MIC [21]: >512 µg/mL
